# Laboratory results as given in patent publication US8470763B2, “Alpha-amino-N-substituted amides, pharmaceutical composition containing them and uses thereof” (Shanghai Institute of Materia Medica Chinese Academy of …, priority 2007, dated 2013).
# Where two headings read alike, the source gives them in different places.
# Columns and labels:
# [1] = test system: MDA-MB-435S human breast cancer cells; test: MTT assay, proliferation of MDA-MB-435S cells; type: cell-based; settings: 72 h
# Experimental: The experiments for evaluating the antineoplasmic activities of the compounds according to the present invention were carried out, and the compounds' antineoplasmic activities in vitro was evaluated by determining the inhibitory activities thereof against the proliferation of MDA-MB-435S human breast cancer cells.
# The antineoplasmic activities were determined by using the MTT assay, which is based on the metabolic reduction of 3-(4,5-dimethylthylthiazol-2-yl)-2,5-diphenyl tetrazolium bromide (MTT). The dehydrogenases, which are related to NADP (niacinamide adenine dinucleotide phosphate, coenzyme) and present in mitochondrions of living cells, can reduce the yellow MTT to an insoluble, dark purple formazan. […] After the formazan is dissolved in DMSO, the optical density is determined on an ELISA Reader at the wavelength of 550/690 nm.
# (§1) The adhered MDA-MB-4355 cells in logarithmic growth phase, were digested by 0.05% trypsogen, counted and formulated into a cell suspension with a medium. After counted, the suspension was inoculated on a 96-well plate with 3000 cells and 100 μl medium per well. The inoculated 96-well plate was placed overnight in an incubator at 37 with 5% CO2 to allow the cells to adhere to the wall. On the next day, the administration of the drugs started. Before the administration, into some of the control wells, each was added 20 μl of the MTT solution (5 mg/ml) without removing the medium therein. After incubated for 3 h, the absorption at A550/690 was recorded as the initial cell concentration. For the drug wells, each was added into 100 μl of medium containing 2 μl of compound solution. For the control wells which use DMSO as background control, each was also added into 100 μl of medium containing 2 μl of DMSO. In addition, each experiment was carried out with adriamycin as the positive control. Subsequently, the 96-well plate was incubated in an incubator at 37 with 5% CO2 for 72 h. each compound was tested in triplicate wells (6 μl of compound solution was put into a sterilized eppendorf centrifuge tube, then 300 μl of medium was added and mixed well, and the mixture was distributed into 3 wells respectively), and at six concentrations which form a gradient. 3 days (72 h) later, 40 μl of MTT solution (5 mg/ml) was put into each well directly (without sucking off the medium therein), and the plate was incubated in the incubator for 3 h and then taken out. The liquid in each well was sucked off, and then 100 μl of DMSO was put into each well to dissolve the crystal completely with slight shake. The absorbance of the solution in each well was determined at 550/690 nm on an ELISA Reader as the cell density after treated with the compound. The growth inhibition of compound against breast cancer cells MDA-MB-435S was represented by the cell survival rate, and IC50 was determined from the profile of cell survival rate vs compound concentration. The calculating formula was as follows: cell survival rate=[(cells+compound)A550/690/(cells+compound vector DMSO)A550/690]×100%
# [2] = test system: colon cancer cells HCT116; test: MTT assay, HCT116 cells; type: cell-based; settings: Homo sapiens, HCT-116, 72 h
# Experimental: as §1
# (§2) MDA-MB-435S: human breast cancer cells; HCT116: colon cancer cells; A549: lung adenocarcinoma cells; Hela: uterine cervix cancer cells.
# (§3) The tests were performed in the same manner as that of experimental example 1, except that for Hela cells, after counted, each well was seeded with 1000 cells and 100 μl of medium on a 96-well plate.
# [3] = test system: lung adenocarcinoma cells A549; test: MTT assay, A549 cells; type: cell-based; settings: Homo sapiens, 72 h
# Experimental: as §1, §2, §3
# A549 (Lung Cancer) = test: SRB assay, A549; type: cell-based; settings: Homo sapiens, 72 h, read-out: IC50 (μM) (mean ± SD)
# Experimental: (§4) Experimental method: The antineoplasmic activities in vitro of the compounds were determined by SRB assay. The detailed procedure was as follows. The cells in the logarithmic growth phase were inoculated on a 96-well microculture plate with a suitable density (100 μl/well), and allowed to attach overnight, followed by addition of the compound at different concentrations to be treated for 72 h. For each concentration, the test was carried out in triplicate wells, and included control wells containing the aqueous medium of normal saline and a blank well containing all medium without cells for zeroing. After cultured overnight, the cells were treated with the compound at different concentrations for 72 h. After the treatment, the culture medium was removed, and the cells were fixed with 10% (wt/vol) trichloroacetic acid (100 μL/well) at 4° C. for 1 h. The cells were then washed with distilled water for 5 times, and died at room temperature, followed by addition of a SRB solution (4 mg/mL, dissolved in 1% glacial acetic acid) at 100 μL/well. The cells were incubated and stained at room temperature for 15 min, then washed with 1% glacial acetic acid for 5 times to remove the uncombined SRB, and died at room temperature. 100 μL of 10 mM Tris solution was added in each well, and the Optical Density (OD) were measured at a wavelength of 560 nm on a VERSMax ELISA Reader (Molecule Devices). The growth inhibition of the compound against tumor cells was calculated according to the following equation: Growth inhibition (%)=(ODcontrol−ODtreated)/ODcontrol×100%.
# (§5) IC50 (the concentration of the sample compound that is required for 50% inhibition of cell growth) was calculated by using the Logit method based on the measurement, and each test was repeated for 3 times to calculate the mean value and standard deviation.
# [4] = test system: SGC-7901 (Gastric Cancer); test: SRB assay, SGC-7901; type: cell-based; settings: Homo sapiens, 72 h, read-out: IC50 (μM) (mean ± SD)
# Experimental: as §4, §5
# HCT-116 (Colon Cancer) = test: SRB assay, HCT-116; type: cell-based; settings: Homo sapiens, 72 h, read-out: IC50 (μM) (mean ± SD)
# Experimental: as §4, §5
# HO-8910 (Ovarian Cancer) = test: SRB assay, HO-8910; type: cell-based; settings: 72 h, read-out: IC50 (μM) (mean ± SD)
# Experimental: as §4, §5
# SMMC-7721 (Liver Cancer) = test: SRB assay, SMMC-7721; type: cell-based; settings: Homo sapiens, 72 h, read-out: IC50 (μM) (mean ± SD)
# Experimental: as §4, §5
# Zip177 (Liver Cancer) = test: SRB assay, Zip177; type: cell-based; settings: 72 h, read-out: IC50 (μM) (mean ± SD)
# Experimental: as §4, §5
# HepG2 (Liver Cancer) = test: SRB assay, HepG2; type: cell-based; settings: Homo sapiens, 72 h, read-out: IC50 (μM) (mean ± SD)
# Experimental: as §4, §5
# [5] = test system: HPAF-II (Pancreatic Cancer); test: SRB assay, HPAF-II; type: cell-based; settings: Homo sapiens, 72 h, read-out: IC50 (μM) (mean ± SD)
# Experimental: as §4, §5
# [6] = test system: human breast cancer cells MDA-MB-435 transplanted on nude mice; test: Antineoplasmic activity in vivo, MDA-MB-435 transplanted tumor on nude mice; settings: for Body Weight(g) Ultimate / TV (mm^3) d21 / RTV: q3w × 3w; for Body Weight(g) Ultimate: i.v. 4 times then peritoneally 5 times; for RTV: d21
# Experimental: Dosage: among 3 groups, the dosages of L538 were set at 5, 10 and 20 mg/kg as the high, middle and low dosages, respectively, administrating intravenously 3 times a week; while MMC was administrated intravenously at the first day whit a dosage of 5 mg/kg.
# Animals: BALB/CA nude mice, male, 40-45 days old, body weight: 18±1 g, provided by Shanghai Institute of Materia Medica, Chinese Academy of Sciences. […] Animal number in each group: 7 in negative control group, and 4 in administration group.
# The amount of inoculated cells was 5×10^6. After the transplanted tumor was formed by inoculation, it was used after passed for 3 generations in nude mice.
# Experimental procedure: tumor tissue in productive phase was cut into nubs of about 1.5 mm^3. Under sterile conditions, the nubs were inoculated subcutaneously in right axillary fossa of the nude mice. The diameters of the transplanted tumors on nude mice were measured by a vernier caliper. When the tumors grew up to 100-200 mm^3, the animals were divided randomly into groups. Mice in experimental groups were administered intravenously every other day. […] The total administration duration was 3 weeks. For the positive control, MMC, Mice were administered intravenously once at the first day of a week, and the total administration duration was 3 weeks. Mice in control groups were administrated physiologic saline in equivalent amount. The diameter of the tumor and weight of mice were measured twice a week. The equation for calculating the TV (tumor volume) was as follows: TV=½×a×b^2, • wherein, a is length and b is width. RTV (relative tumor volume) was calculated based on the measured results, and the equation thereof was as follows: RTV=Vt/V0 • wherein, V0 is the tumor volume measured when the mice were grouped (i.e. d0), and Vt is the tumor volume at each measurement. The evaluation index for the antitumor activity was the relative tumor proliferation rateT/C (%).
# The calculation equation was as follows: T/C(%)=(TRTV/CRTV)×100, • wherein, TRTV is the RTV of therapeutic Group and CRTV is RTV of negative control group.
structure (smiles),measurement,setting,value
CO[C@@H](C(=O)N[C@@H](C)C(=O)NCCOC(=O)C12CC3CC(CC(C3)C1)C2)[C@H](O)[C@@H](O)[C@H](O)/C=C/C(C)(C)C [Compound L538],IC50,[1]; read-out: Cell Survival Rate IC50,490 nM
same,IC50,"[1]; Homo sapiens, note: MDA-MB-435S, read-out: IC50 (MDA-MB-435)",494 ± 139 nM
same,IC50,"[1]; Homo sapiens, read-out: Cell Survival Rate IC50",430 nM
same,IC50,[2],98 ± 9 nM
same,IC50,[3],133 ± 25 nM
same,IC50,A549 (Lung Cancer),0.02 ± 0.004 µM
same,IC50,[4],3.92 ± 1.78 µM
same,IC50,HCT-116 (Colon Cancer),0.24 ± 0.1 µM
same,IC50,HO-8910 (Ovarian Cancer),> 20 µM
same,IC50,SMMC-7721 (Liver Cancer),0.58 ± 0.04 µM
same,IC50,Zip177 (Liver Cancer),0.37 ± 0.06 µM
same,IC50,HepG2 (Liver Cancer),0.45 ± 0.07 µM
same,IC50,[5],0.65 ± 0.21 µM
same,"growth inhibition of transplanted tumor, conclusion","[6]; 5, 10 and 20 mg/kg, 3 weeks",can significantly depress the growth
same,T/C (%),"[6]; L538 5 mg/kg, q3w × 3w (low dosage group), P >0.05",64.7%
same,Body Weight(g) Ultimate,"[6]; L538 5 mg/kg, initial 19.3 g",23.5 g
same,TV (mm^3) d21,"[6]; L538 5 mg/kg, d0 131 ± 59",1144 ± 353 mm^3
same,RTV,[6]; L538 5 mg/kg,9.6 ± 3.5
same,T/C (%),"[6]; L538 10 mg/kg, q3w × 3w (middle dosage group), P <0.05",47.1%
same,Body Weight(g) Ultimate,"[6]; L538 10 mg/kg, initial 17.7 g",21.7 g
same,TV (mm^3) d21,"[6]; L538 10 mg/kg, d0 133 ± 49",951 ± 619 mm^3
same,RTV,[6]; L538 10 mg/kg,6.9 ± 3.6
same,T/C (%),"[6]; L538 20 mg/kg, q3w × 3w (high dosage group), P <0.05",36.0%
same,Body Weight(g) Ultimate,"[6]; L538 20 mg/kg, initial 18.5 g",19.7 g
same,TV (mm^3) d21,"[6]; L538 20 mg/kg, d0 135 ± 37",735 ± 501 mm^3
same,RTV,[6]; L538 20 mg/kg,5.3 ± 3.1
same,tail stimulus on intravenous administration,"[6]; after administered intravenously 4 times, every other day",too strong tail stimulus to be administered intravenously
same,increase in body weight,[6]; high dosage group,did not have an significant increase in body weight
same,growth inhibition of transplanted tumor,[6]; low dosage group,did not be depressed obviously
